ChEMBL document CHEMBL3885861, “Open TG-GATES”

Organism: Rattus norvegicus
Assay: Open TG-GATES - Regimen: Daily Repeat
Format: toxicity, organism-based, Sprague-Dawley
Parameters: regimen Daily Repeat, gender Male, age 6 weeks
Conditions: in vivo, iv, 0 mg/kg, route intravenous injection, dose level Control; for APTT / Bas / Eos / Fbg / Hb / Ht / Lym / MCH / MCHC / MCV / Mono / Neu / PT / Plat / RBC / Ret / WBC: tissue Blood; for KIDNEY_L / KIDNEY_R / KIDNEY_TOTAL: tissue Kidney; for LIVER: tissue Liver; for A/G / ALP / ALT / AST / BUN / CRE / Ca / Cl / DBIL / GLC / IP / K / LDH / Na / PL / RALB / TBIL / TC / TG / TP / gamma-GTP: tissue Plasma

`C[C@@H]1[C@H](O)[C@@H](C)/C=C/C=C/C=C/C=C/C=C/C=C/C=C/[C@H](O[C@@H]2O[C@H](C)[C@@H](O)[C@H](N)[C@@H]2O)C[C@@H]2O[C@](O)(C[C@@H](O)C[C@@H](O)[C@H](O)CC[C@@H](O)C[C@@H](O)CC(=O)O[C@H]1C)C[C@H](O)[C@H]2C(=O)O` [AMPHOTERICIN B] showed a TERMINAL_BW (72 h, time 3 day) of 239.8 g, an APTT (72 h, time 3 day) of 16.6 s and a Bas (72 h, time 3 day) of 0%. The Eos (72 h, time 3 day) was 1%, the Fbg (72 h, time 3 day) was 293.6 mg/dL and the Hb (72 h, time 3 day) was 13.7 g/dL. It also gave a Ht (72 h, time 3 day) of 40.1%, a Lym (72 h, time 3 day) of 75.8% and an MCH (72 h, time 3 day) of 20.5 pg. It also gave an MCHC (72 h, time 3 day) of 34.2%, an MCV (72 h, time 3 day) of 60 fL and a Mono (72 h, time 3 day) of 2.2%. The Neu (72 h, time 3 day) was 19.8%, the PT (72 h, time 3 day) was 12.6 s and the Plat (72 h, time 3 day) was 145.3 x10_4/uL. It also gave an RBC (72 h, time 3 day) of 668.2 x10_4/ul, a Ret (72 h, time 3 day) of 4.9% and a WBC (72 h, time 3 day) of 97.1 x10_2/uL. It also gave a KIDNEY_L (72 h, time 3 day) of 1 g, a KIDNEY_R (72 h, time 3 day) of 1 g and a KIDNEY_TOTAL (72 h, time 3 day) of 2 g. For the same compound, the LIVER (72 h, time 3 day) was 11.5 g, the A/G (72 h, time 3 day) was 0.8 and the ALP (72 h, time 3 day) was 1512.4 IU/L. It also gave an ALT (72 h, time 3 day) of 38.6 IU/L, an AST (72 h, time 3 day) of 66.2 IU/L and a BUN (72 h, time 3 day) of 16.6 mg/dL. The CRE (72 h, time 3 day) was 0.2 mg/dL, the Ca (72 h, time 3 day) was 11 mg/dL and the Cl (72 h, time 3 day) was 105.4 meq/L. It also gave a DBIL (72 h, time 3 day) of 0.02 mg/dL, a GLC (72 h, time 3 day) of 175.4 mg/dL and an IP (72 h, time 3 day) of 7.3 mg/dL. The K (72 h, time 3 day) was 4.1 meq/L, the LDH (72 h, time 3 day) was 58.6 IU/L and the Na (72 h, time 3 day) was 142.8 meq/L. For the same compound, the PL (72 h, time 3 day) was 140.6 mg/dL, the RALB (72 h, time 3 day) was 2.7 g/dL and the TBIL (72 h, time 3 day) was 0.046 mg/dL. For the same compound, the TC (72 h, time 3 day) was 73.6 mg/dL, the TG (72 h, time 3 day) was 110.8 mg/dL and the TP (72 h, time 3 day) was 6 g/dL. It also gave a gamma-GTP (72 h, time 3 day) of 1.2 IU/L, a TERMINAL_BW ([…], time 7 day) of 275.6 g and a TERMINAL_BW ([…], time 14 day) of 324.6 g. The TERMINAL_BW ([…], time 28 day) was 391.3 g, the APTT ([…], time 7 day) was 17.5 s and the Bas ([…], time 7 day) was 0%. It also gave an Eos ([…], time 7 day) of 1%, a Fbg ([…], time 7 day) of 264.4 mg/dL and a Hb ([…], time 7 day) of 13.4 g/dL. For the same compound, the Ht ([…], time 7 day) was 38.9%, the Lym ([…], time 7 day) was 79.8% and the MCH ([…], time 7 day) was 20.7 pg. The MCHC ([…], time 7 day) was 34.4%, the MCV ([…], time 7 day) was 60 fL and the Mono ([…], time 7 day) was 2.2%. For the same compound, the Neu ([…], time 7 day) was 16%, the PT ([…], time 7 day) was 12.3 s and the Plat ([…], time 7 day) was 122.6 x10_4/uL. The RBC ([…], time 7 day) was 648.2 x10_4/ul, the Ret ([…], time 7 day) was 4.7% and the WBC ([…], time 7 day) was 102.1 x10_2/uL. For the same compound, the APTT ([…], time 14 day) was 16.3 s, the Bas ([…], time 14 day) was 1% and the Eos ([…], time 14 day) was 1%. It also gave a Fbg ([…], time 14 day) of 280.6 mg/dL, a Hb ([…], time 14 day) of 14.6 g/dL and a Ht ([…], time 14 day) of 41.3%. It also gave a Lym ([…], time 14 day) of 80%, an MCH ([…], time 14 day) of 20.5 pg and an MCHC ([…], time 14 day) of 35.4%. It also gave an MCV ([…], time 14 day) of 57.8 fL, a Mono ([…], time 14 day) of 2.4% and a Neu ([…], time 14 day) of 15.6%. The PT ([…], time 14 day) was 12.3 s, the Plat ([…], time 14 day) was 129.9 x10_4/uL and the RBC ([…], time 14 day) was 716.4 x10_4/ul. The Ret ([…], time 14 day) was 4%, the WBC ([…], time 14 day) was 134.6 x10_2/uL and the APTT ([…], time 28 day) was 19.2 s. It also gave a Bas ([…], time 28 day) of 0.4%, an Eos ([…], time 28 day) of 1% and a Fbg ([…], time 28 day) of 260.4 mg/dL. The Hb ([…], time 28 day) was 15.3 g/dL, the Ht ([…], time 28 day) was 43.7% and the Lym ([…], time 28 day) was 77%. For the same compound, the MCH ([…], time 28 day) was 18.9 pg, the MCHC ([…], time 28 day) was 35% and the MCV ([…], time 28 day) was 54 fL. For the same compound, the Mono ([…], time 28 day) was 1.4%, the Neu ([…], time 28 day) was 19% and the PT ([…], time 28 day) was 13 s. It also gave a Plat ([…], time 28 day) of 114.3 x10_4/uL, an RBC ([…], time 28 day) of 808.4 x10_4/ul and a Ret ([…], time 28 day) of 2.2%. The WBC ([…], time 28 day) was 119.7 x10_2/uL, the KIDNEY_L ([…], time 7 day) was 1.1 g and the KIDNEY_R ([…], time 7 day) was 1.1 g. It also gave a KIDNEY_TOTAL ([…], time 7 day) of 2.2 g, a KIDNEY_L ([…], time 14 day) of 1.3 g and a KIDNEY_R ([…], time 14 day) of 1.3 g. For the same compound, the KIDNEY_TOTAL ([…], time 14 day) was 2.6 g, the KIDNEY_L ([…], time 28 day) was 1.4 g and the KIDNEY_R ([…], time 28 day) was 1.3 g. It also gave a KIDNEY_TOTAL ([…], time 28 day) of 2.8 g, an LIVER ([…], time 7 day) of 12 g and an LIVER ([…], time 14 day) of 14 g. It also gave an LIVER ([…], time 28 day) of 15.5 g, an A/G ([…], time 7 day) of 0.8 and an ALP ([…], time 7 day) of 1920.8 IU/L. The ALT ([…], time 7 day) was 35 IU/L, the AST ([…], time 7 day) was 69 IU/L and the BUN ([…], time 7 day) was 17 mg/dL. It also gave a CRE ([…], time 7 day) of 0.2 mg/dL, a Ca ([…], time 7 day) of 11.3 mg/dL and a Cl ([…], time 7 day) of 105.6 meq/L. For the same compound, the DBIL ([…], time 7 day) was 0.02 mg/dL, the GLC ([…], time 7 day) was 179.8 mg/dL and the IP ([…], time 7 day) was 7 mg/dL. The K ([…], time 7 day) was 4.3 meq/L, the LDH ([…], time 7 day) was 63 IU/L and the Na ([…], time 7 day) was 143.8 meq/L. For the same compound, the PL ([…], time 7 day) was 136.2 mg/dL, the RALB ([…], time 7 day) was 2.7 g/dL and the TBIL ([…], time 7 day) was 0.05 mg/dL. For the same compound, the TC ([…], time 7 day) was 69.8 mg/dL, the TG ([…], time 7 day) was 101.6 mg/dL and the TP ([…], time 7 day) was 5.9 g/dL. The gamma-GTP ([…], time 7 day) was 1 IU/L, the A/G ([…], time 14 day) was 0.8 and the ALP ([…], time 14 day) was 1407.4 IU/L. The ALT ([…], time 14 day) was 40.8 IU/L, the AST ([…], time 14 day) was 66 IU/L and the BUN ([…], time 14 day) was 18 mg/dL. The CRE ([…], time 14 day) was 0.2 mg/dL, the Ca ([…], time 14 day) was 10.9 mg/dL and the Cl ([…], time 14 day) was 105 meq/L. The DBIL ([…], time 14 day) was 0.014 mg/dL, the GLC ([…], time 14 day) was 185.4 mg/dL and the IP ([…], time 14 day) was 7.4 mg/dL. The K ([…], time 14 day) was 4.2 meq/L, the LDH ([…], time 14 day) was 61 IU/L and the Na ([…], time 14 day) was 142.8 meq/L. It also gave a PL ([…], time 14 day) of 144.6 mg/dL, an RALB ([…], time 14 day) of 2.6 g/dL and a TBIL ([…], time 14 day) of 0.048 mg/dL. It also gave a TC ([…], time 14 day) of 76.2 mg/dL, a TG ([…], time 14 day) of 117 mg/dL and a TP ([…], time 14 day) of 6 g/dL. It also gave a gamma-GTP ([…], time 14 day) of 1 IU/L, an A/G ([…], time 28 day) of 0.7 and an ALP ([…], time 28 day) of 1095.6 IU/L. The ALT ([…], time 28 day) was 36.8 IU/L, the AST ([…], time 28 day) was 62.2 IU/L and the BUN ([…], time 28 day) was 17.2 mg/dL. It also gave a CRE ([…], time 28 day) of 0.2 mg/dL, a Ca ([…], time 28 day) of 11.1 mg/dL and a Cl ([…], time 28 day) of 105 meq/L. For the same compound, the DBIL ([…], time 28 day) was 0.018 mg/dL, the GLC ([…], time 28 day) was 186 mg/dL and the IP ([…], time 28 day) was 6.2 mg/dL. It also gave a K ([…], time 28 day) of 3.8 meq/L, an LDH ([…], time 28 day) of 54.2 IU/L and a Na ([…], time 28 day) of 144.4 meq/L. For the same compound, the PL ([…], time 28 day) was 148.6 mg/dL, the RALB ([…], time 28 day) was 2.6 g/dL and the TBIL ([…], time 28 day) was 0.06 mg/dL. For the same compound, the TC ([…], time 28 day) was 73.8 mg/dL, the TG ([…], time 28 day) was 157 mg/dL and the TP ([…], time 28 day) was 6.4 g/dL. The gamma-GTP ([…], time 28 day) was 1.2 IU/L.
